From patent US7041684B2, “Selective β3 adrenergic agonists” (Eli Lilly and Company, priority 1996, dated 2006)
Structures can show the parent of a compound that is named as a salt.

| melting point | Structure (SMILES) |
| --- | --- |
| 57 to 61 °C (dec.) | CCOC(=O)COc1ccc(OCCNC[C@H](O)COc2cccc3[nH]c4ccccc4c23)cc1 (as salt: HCl) |
| 120 to 130 °C (dec.) | CC(C)(CNC(=O)c1ccc(Oc2ccc(C#N)cc2)cc1)NC[C@H](O)COc1cccc2[nH]c3ccccc3c12 (as salt: HCl) |
